{"source": "patent US9363996B2", "about": "“Compositions and method for blocking ethylene response in field crops using 3-(cy-clopropyl-l-enyl)-propanoic salt” (Yissum Research Development Company of the Hebrew …, priority 2009, dated 2016)", "key": {"wheat plants": {"tested_on": "wheat plants", "experiment": "Wheat grain weight at the milky stages after Ethephon treatment", "format": "in vivo, wheat (Triticum turgidum var. 'Gdera')", "details": "for grain yield increase by antagonizing Ethephon: fresh weight basis", "experimental": "(1) Abscission—This is a very sensitive model system for studying the effects of plant hormones. Ethylene induces the process of abscission, while auxin delays it. In the laboratory the experimental system is based on plant organ explants, which include the abscission zone. Abscission is induced by exposure to ethylene and at the termination of the experiment the number of abscised organs, usually either leaf blades or petioles are counted and the fraction of abscission is calculated. In the case of fruit, the decrease in fruit retention force is analyzed. In cotton, when WS-CPD (the ethylene-action antagonist herein disclosed) is tested, the whole plants or explants are pretreated by spraying with the antagonist, dissolved in a phosphate buffer solution (10-20 mM, pH 7.0) including 0.1% commercially available Kinetic™ as surfactant, and left to incubate for a predetermined time, usually between 6 and 24 h. The plants or explants are then further exposed for 24 h to ethylene gas (5 to 20 μL L^−1). The plants or explants are then ventilated and incubated for the required time under controlled conditions. At the end of the experiment the percentage of abscission is determined. (2) Chlorophyll degradation—This is a standard model for studying senescence. Plant material (whole plants, excised leaves or leaf discs) are pretreated. In cotton, tobacco and wheat, when WS-CPD is tested, the whole plants or explants are pretreated by spraying with the antagonist, dissolved in phosphate buffer solution (10-20 mM, pH 7.0) including 0.1% commercially available Kinetic™ surfactant, and left to incubate for a predetermined time, usually between 6 and 241. The plants or explants are then further exposed for 24 h to ethylene gas (1 to 100 μL L^−1), or sprayed with Ethephon™ (wheat; 250 to 750 μL L^−1). The plants or explants are then ventilated and incubated for the required time under controlled conditions. At the end of the experiment a dimethylsulfoxide (DMSO) extract of the plant tissue is prepared, and the chlorophyll content of the extract is determined by spectrophotometric analysis. The chlorophyll content is reported either on a fresh, dry weight basis, or on a surface area basis. (3) Epinasty—This is also one of the classical methods for studying ethylene effects in plants. The extent of ethylene-induced epinasty of leaves is determined by measuring the change of the angle between the petiole and the stem shoot or blade. After exposure of the intact plant to ethylene, the upright grown leaves bend downward. The increase in the angle values (degrees) between petiole and the stem is used as a measure of the effect of the ethylene. When WS-CPD is tested on cotton and wheat plants, the whole plants are pretreated by spraying with the antagonist dissolved in phosphate buffer solution (10-20 mM, pH 7.6) including 0.1% Kinetic™ as surfactant, and left to incubate for a predetermined time, usually between 6 and 24 h. The plants are then further exposed for 24 h to ethylene gas (cotton, 5 to 10 μL L^−1), or sprayed with Ethephon™ (wheat, 250 to 750 μL L^−1). The plants are then ventilated and incubated for the required time under controlled conditions. The epinastic effect is expressed by measuring the degree values of the downward curvature between the blade and petiole (cotton, FIGS. 1-3) or between the blade and the stem (wheat, FIGS. 31 and 32). (4) Wheat Grain yield—This is a common test of the effects of exposure of monocot plants either to environmental stresses such as drought that induce senescence by increasing endogenous ethylene production. Excessive internal or external ethylene will accelerate senescence which will lead to reduced grain yield. In this project the intact plants were grown in the greenhouse up to the spike hading at milky stage I and II. The plants were then sprayed with the dissolved WS-CPD in phosphate buffer solution (10 mM, pH 7.6) including 0.1% Kinetic™ as surfactant. Young Cotton Seedlings […]"}, "[1]": {"tested_on": "young cotton leaf explants", "experiment": "Ethylene-induced petiole abscission of young cotton leaf explants", "format": "in vivo, cotton (Gossyium hirsutum barbadense L.)", "experimental": "(1) Abscission—This is a very sensitive model system for studying the effects of plant hormones. Ethylene induces the process of abscission, while auxin delays it. In the laboratory the experimental system is based on plant organ explants, which include the abscission zone. Abscission is induced by exposure to ethylene and at the termination of the experiment the number of abscised organs, usually either leaf blades or petioles are counted and the fraction of abscission is calculated. In the case of fruit, the decrease in fruit retention force is analyzed. In cotton, when WS-CPD (the ethylene-action antagonist herein disclosed) is tested, the whole plants or explants are pretreated by spraying with the antagonist, dissolved in a phosphate buffer solution (10-20 mM, pH 7.0) including 0.1% commercially available Kinetic™ as surfactant, and left to incubate for a predetermined time, usually between 6 and 24 h. The plants or explants are then further exposed for 24 h to ethylene gas (5 to 20 μL L^−1). The plants or explants are then ventilated and incubated for the required time under controlled conditions. At the end of the experiment the percentage of abscission is determined. (2) Chlorophyll degradation—This is a standard model for studying senescence. Plant material (whole plants, excised leaves or leaf discs) are pretreated. In cotton, tobacco and wheat, when WS-CPD is tested, the whole plants or explants are pretreated by spraying with the antagonist, dissolved in phosphate buffer solution (10-20 mM, pH 7.0) including 0.1% commercially available Kinetic™ surfactant, and left to incubate for a predetermined time, usually between 6 and 241. […] At the end of the experiment a dimethylsulfoxide (DMSO) extract of the plant tissue is prepared, and the chlorophyll content of the extract is determined by spectrophotometric analysis. […] The extent of ethylene-induced epinasty of leaves is determined by measuring the change of the angle between the petiole and the stem shoot or blade. […]"}}}
{"smiles": "O=C([O-])CCC1=CC1.[Na+]", "note": "[WS-CPD, 3-cyclopropyl-1-enyl-propanoic sodium salt]", "values": [{"measurement": "Ethephon-induced decrease of grain weight", "setting": "wheat plants; WS-CPD 135 μg mL^−1 pretreatment at milky stage I, both milky stages", "result": "prevented the decrease"}, {"measurement": "overcoming the Ethephon reduction in grain weight", "setting": "wheat plants; WS-CPD 80 to 180 μg mL^−1", "result": "best results"}, {"measurement": "grain yield increase by antagonizing Ethephon", "setting": "wheat plants; milky stage I", "result": "ca. 5%"}, {"measurement": "grain yield increase by antagonizing Ethephon", "setting": "wheat plants; milky stage II", "result": "ca. 16%"}, {"measurement": "abscission percentage of explants", "setting": "[1]; WS-CPD 300 μg mL^−1", "result": "lower than the air control treatment"}, {"measurement": "decrease of abscission", "setting": "[1]; WS-CPD 10 to 30 μg mL^−1, throughout the experiment, ethylene-treated explants", "result": "about 20%"}]}
